Test results published in US4499019A, “N-(1-allyl-2-pyrrolidylmethyl)-2,3-dimethoxy-5-sulfamoylbenzamide and derivatives thereof and method for treating hot flushes associated with natural or surgical menopause” (Societe D'Etudes Scientifiques et Industrielles de l'Ile de …, priority 1976, dated 1985).
Where two headings read alike, the source gives them in different places.

Columns and labels:
[1] = Acute toxicity in the Swiss mouse (parenteral and oral administration); conditions: in vivo
Text: (§1) The acute toxicity of the compound was studied in the Swiss mouse with both parenteral and oral administration and in the Wistar rat with oral administration.

[2] = test system: Wistar rat; test: Acute toxicity in the Wistar rat (oral administration); assay type: in vivo
Text: as §1
However, the LD0 is approximately 1.5 g/kg.

[3] = Semichronic toxicity in the Wistar rat, oral, four weeks; conditions: in vivo, doses 0.5, 1 and 2 g/kg per 24 hours, read-out: relatively or completely non-toxic up to (dose)
Method: In the rat the compound was administered in doses of 0.5, 1 and 2 g/kg per 24 hours.

[4] = test system: female rat; test: Effects on ovary, vaginal cytology and mammary glands in the female rat; assay type: in vivo
Text: (§2) Experiments have been carried out on both the female rat and the female hamster. The changes produced by the compound at the level of the ovary and of vaginal cytology make it possible to predict a point of impact located at the level of the hypothalamo hypophyso-ovarian axis.

[5] = test system: female hamster; test: Effects on ovary and mammary glands in the female hamster; assay type: in vivo
Text: as §2

[6] = test system: psycho neuro-vegetative symptoms of the menopause; test: Double-blind study against placebo on the psycho neuro-vegetative symptoms of the menopause; assay type: in vivo, human; conditions: forty observations, double blinding against placebo
Text: The action of the compound on the psycho neuro-vegetative symptoms of the menopause has been studied with double blinding against placebo.

[7] = test system: psycho neuro-vegetative syndrome of the natural or surgical menopause; test: Clinical results in patients with psycho neuro-vegetative syndrome of the menopause (243 patients); assay type: in vivo, human
[8] = test system: male rats; conditions: rat, in vivo, sc
Method: The compound was administered subcutaneously to male rats. The criterion for the cataleptic state was the immobility of the animal for 30 seconds with its front limbs apart and arranged carefully on cubes of wood 4 centimeters high, thus placing the animal in an unaccustomed and uncomfortable position.

[9] = test system: patients; conditions: human, in vivo
[10] = test system: psycho neuro-vegetative syndrome of the natural or surgical menopause
Method: A patient, suffering considerable neuro-vegetative symptoms in the natural menopause mainly with attacks of sweating and hot flushes (30-40 a day), was treated orally with N-(1'-allyl-2'-pyrrolidylmethyl)-2,3-dimethoxy-5-sulfamoylbenzamide at a dosage of 100 mg per day. […] The following is a comparison of the patient's neuro-vegetative symptoms before treatment with treatment after eight days:
The patient was treated orally with N-(1'-allyl-2'-pyrrolidylmethyl)-2,3-dimethoxy-5-sulfamoylbenzamide at a dosage rate of 100 mg per day.
A patient had considerable neuro-vegetative symptoms in the natural menopause with mainly hot flushes and headaches.
The patient was treated orally with N-(1'-allyl-2'-pyrrolidylmethyl)-2,3-dimethoxy-5-sulfamoylbenzamide at a dosage rate of 100 mg per day for twenty days.
The patient was treated again in the same manner as previously at a dosage rate of 100 mg per day for twenty days.
A patient suffered neuro-vegetative symptoms in the surgical menopause with mainly hot flushes which set in following a hysterectomy for a fibroid tumor.

[11] = female rat, subcutaneous injections, 3.5 and 10 mg/kg
[12] = female hamster, subcutaneous injections, 3.5 and 10 mg/kg
[13] = Example 18, 100 mg per day oral, after eight days, before: Severe
[14] = Example 19, 100 mg per day oral, eight days, before: Severe
[15] = Example 20, 100 mg per day oral for twenty days, before: Severe
[16] = Example 21, 100 mg per day oral for twenty days, before: Severe
[17] = Example 21, 100 mg per day oral for twenty days, before: Yes
[18] = Example 22, 100 mg per day oral for twenty days, before: Medium
[19] = Example 22, 100 mg per day oral for twenty days, before: Yes
[20] = Example 23, 100 mg per day oral for twenty days, before: Severe
[21] = Example 23, 100 mg per day oral for twenty days, before: Yes

C=CCN1CCCC1CNC(=O)c1cc(S(N)(=O)=O)cc(OC)c1OC (stereo not drawn) [N-(1'-allyl-2'-pyrrolidylmethyl)-2,3-dimethoxy-5-sulfamoylbenzamide]
LD50 ([1]; ip): 320 mg/kg
LD50 ([1]; iv): 124 to 129 mg/kg
LD50 ([1]; po): 1300 mg/kg
LD50 ([1]; sc): 465 to 518 mg/kg
LD50 ([2]; Wistar rat, oral): toxicity of the compound was so low that the LD50 could not be determined
LD0 ([2]; rat, in vivo, po): approximately 1.5 g/kg
LD100 ([2]; rat, in vivo, po): > 4000 mg/kg
NOAEL at 672 h [3]: 1000 mg/kg/day
change to the uterus ([4]; female rat): little change to the uterus
vaginal cycle ([4]; female rat): blocked in dioestrus
vaginal epithelium ([4]; female rat): primsmatic, indicating the predominance of progesterone over estrogens
corpora lutea of the ovary [4, 11]: caused the corpora lutea of the ovary to be maintained
progesterone secretion by the maintained corpora lutea [4, 11]: secreted increased quantities of progesterone
susceptibility, rat versus hamster ([4]; mammary gland development): The rat appeared to be more susceptible than the hamster
development of the mammary glands ([4]; rat): development of the mammary glands was noted
secretory activity of the mammary glands ([4]; rat, at the highest doses): signs of secretory activity
corpora lutea of the ovary [5, 12]: caused the corpora lutea of the ovary to be maintained
progesterone secretion by the maintained corpora lutea [5, 12]: secreted increased quantities of progesterone
development of the mammary glands ([5]; hamster): development of the mammary glands was noted
secretory activity of the mammary glands ([5]; hamster, at the highest doses): signs of secretory activity
difference between compound and placebo [6]: very significant difference
Vulvar Irritation: Percentage Very Good & Good ([7]; 32 cases): 84%
Vulvar Irritation: Results, Average & Zero (number of cases) ([7]; 32 cases): 5
Vulvar Irritation: Results, Very Good & Good (number of cases) ([7]; 32 cases): 27
Hot Flushes: Percentage Very Good & Good ([7]; 211 cases): 73.9%
Hot Flushes: Results, Average & Zero (number of cases) ([7]; 211 cases): 55
Hot Flushes: Results, Very Good & Good (number of cases) ([7]; 211 cases): 156
effectiveness excellent or good in hot flushes ([7]; cases of hot flushes): 74 % of the cases
vulvar irritation eliminated ([7]; cases of vulvar irritation): 84 % of the cases
effective in psycho neuro-vegetative syndrome of the menopause (hot flashes, vulvar pruritus, vaginal diseases) ([7]; patients, menopause): 84 % of the cases treated
patient's mental state ([7]; patients, natural or surgical menopause): parallel improvement in the patient's mental state
cataleptic action [8]: virtually no cataleptic action
animals made cataleptic ([8]; 200 mg/kg): 30%
clinical and biological tolerance [9]: excellent
side effects including mammary congestion, galactorrhea, drowsiness, etc. (cases) [9]: less than 8 % of the cases
acceptability of the treatment ([9]; po): perfect acceptability
general tolerance ([9]; po): excellent general tolerance
premature interruption of treatment, aversion or troublesome side effects ([9]; po): In no case was the course of treatment interrupted prematurely
results of the treatment ([10]; 100 mg per day oral, first treatment, Examples 19, 20, 22): excellent
Headaches, After Treatment ([10]; Example 18, 100 mg per day oral, after eight days, before: Medium): None
Hot Flushes: Frequency, After Treatment [10, 13]: None
Hot Flushes: Intensity, After Treatment [10, 13]: None
Irritability, After Treatment [10, 13]: Slight
Anxiety, After Treatment ([10]; Example 18, 100 mg per day oral, after eight days, before: Slight): None
flashes and sweating attacks ([10]; Example 18, 100 mg per day oral, after two days (before: hot flushes 30-40 a day)): 8 per day
Anxiety, After Treatment ([10]; Example 19, 100 mg per day oral, eight days, before: Medium): Slight
Headaches, After Treatment [10, 14]: Slight
Hot Flushes: Frequency, After Treatment [10, 14]: None
Hot Flushes: Intensity, After Treatment [10, 14]: None
Irritability, After Treatment [10, 14]: Slight
Headaches, After Treatment ([10]; Example 20, 100 mg per day oral for twenty days, before: Medium): None
Hot Flushes: Frequency, After Treatment [10, 15]: None
Hot Flushes: Intensity, After Treatment [10, 15]: None
Irritability, After Treatment [10, 15]: Slight
Hot Flushes: Frequency, Twenty Days After Treatment [10, 16]: None
Hot Flushes: Intensity, Twenty Days After Treatment [10, 16]: None
Abdominal Meteorism, Twenty Days After Treatment [10, 17]: No
Anxiety, Twenty Days After Treatment [10, 17]: No
Hot Flushes: Frequency, Twenty Days After Treatment [10, 18]: None
Hot Flushes: Intensity, Twenty Days After Treatment [10, 18]: None
Anxiety, Twenty Days After Treatment [10, 19]: No
Irritability, Twenty Days After Treatment [10, 19]: No
reappearance of symptoms after end of second treatment ([10]; Example 23, 100 mg per day oral for twenty days): appeared again five days after termination of the second treatment
Hot Flushes: Frequency, Twenty Days After Treatment [10, 20]: Slight
Hot Flushes: Intensity, Twenty Days After Treatment [10, 20]: Slight
Anxiety, Twenty Days After Treatment [10, 21]: No
Depression, Twenty Days After Treatment [10, 21]: No
Irritability, Twenty Days After Treatment [10, 21]: Yes
Libido Change, Twenty Days After Treatment [10, 21]: Yes
